Bounds are passed on as bounds.

The nature of data set [1]: Metabolic stability with human hepatocytes. The class given is in vitro ADME. To be noted: human hepatocyte suspension, 1 μM, scaled with well stirred model. As to the method:
Assay for the Determination of Metabolic Stability with Human Hepatocytes
The metabolic degradation of the test compound is assayed in a human hepatocyte suspension. Human hepatocytes (typically cryopreserved) are incubated in an appropriate buffer system (e.g. Dulbecco's modified eagle medium plus 3.5 μg glucagon/500 mL, 2.5 mg insulin/500 mL and 3.75 mg/500 mL hydrocortison) containing 5% species serum. Following a (typically) […] preincubation in an incubator (37° C., 10% CO2), 5 μl of test compound solution (80 μM; from 2 mM stock solution in DMSO diluted 1:25 with medium) are added into 395 μl hepatocyte suspension (cell density in the range 0.25-5*10^6 cells/mL, typically 1*10^6 cells/mL; final concentration of test compound 1 μM, final DMSO concentration […]). The cells are incubated for six hours (incubator, orbital shaker) and samples (25 μl) are taken at 0, 0.5, 1, 2, 4 and 6 hours. Samples are transferred into acetonitrile and pelleted by centrifugation (5 min). The supernatant is transferred to a new 96-deepwell plate, evaporated under nitrogen and resuspended. The decline of parent compound is analyzed by LC-MS/MS.
The intrinsic clearance CL_[…] is calculated as follows: CL_[…]=Dose/AUC=(C0/CD)/(AUD+clast/k)*1′000/60 (C0: initial concentration in the incubation [μM], CD: cell density of vital cells [10^6 cells/mL], AUD: area under the data [μM*h], clast: concentration of last data point [μM], k: slope of the regression line for parent decline [h^−1])
The calculated in vitro hepatic intrinsic clearance can be scaled up to the intrinsic in vivo hepatic clearance and used to predict hepatic in vivo blood clearance (CL) by the use of a is liver model (well stirred model): CL_[…]_INVIVO [ml/min/kg]=(CL_[…] [μL/min/10^6 cells]* hepatocellularity[10^6 cells/g liver]*liver factor[g/kg bodyweight])/1′000 CL[ml/min/kg]=CL_[…]_INVIVO [ml/min/kg]*hepatic blood flow [ml/min/kg]/(CL_[…]_INVIVO [ml/min/kg]+hepatic blood flow [ml/min/kg]) Qh[%]=CL[ml/min/kg]/hepatic blood flow[ml/min/kg]) (Hepatocellularity, human: 120*10^6 cells/g liver; lver factor, human: 25.7 g/kg bodyweight; blood flow, human: 21 ml/(min*kg))
The predicted human hepatic in vivo blood clearance (CL) of selected compounds in the metabolic stability assay described above are listed in Table 16.

In data set [2] the target is T1, neutrophil elastase (Homo sapiens, UniProt P08246).
T1 sequence (P08246 30-247 limits assumed): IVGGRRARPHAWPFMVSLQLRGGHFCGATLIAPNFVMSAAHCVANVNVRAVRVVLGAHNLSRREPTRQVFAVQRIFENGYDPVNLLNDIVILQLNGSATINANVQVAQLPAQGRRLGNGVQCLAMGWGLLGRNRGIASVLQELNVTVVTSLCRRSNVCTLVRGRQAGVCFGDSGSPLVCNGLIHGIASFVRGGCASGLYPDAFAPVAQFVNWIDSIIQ
Description: Human Neutrophil Elastase Assay. It counts as biochemical. Further details: purchased Calbiochem 324681. To be noted: substrate MeOSuc-Ala-Ala-Pro-Val-AMC, pH 7.5, room temperature. In short, it runs like this: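 Readout: AMC fluorescence (ex 380, em 460 nm) after 60 min room-temperature reaction with 250 nM MeOSuc-AAPV-AMC, following 15 min compound–enzyme preincubation. Buffer: Tris/NaCl pH 7.5, 0.01% BSA.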

Data set [3] deals with T1, neutrophil elastase. Nature of the data set: Neutrophil elastase inhibitory activity in human plasma. The class given is biochemical. The conditions noted are these: neutrophil elastase enriched human plasma (zymosan-stimulated blood), substrate MeOSuc-Ala-Ala-Pro-Val-AMC. On the set-up: The stimulated blood is centrifuged to generate the neutrophil elastase enriched plasma; from tissue; host or cells: plasma from zymosan-stimulated citrated whole blood of healthy human donors. The procedure:
Assay for the Determination of Neutrophil Elastase Inhibitory Activity in Human Plasma
Citrated blood from human healthy donors is mixed with zymosan suspension and incubated at room temperature. This leads to the stimulation of neutrophils and the release of neutrophil elastase into the plasma. The stimulated blood is centrifuged to generate the neutrophil elastase enriched plasma.
Preparation of Zymosan Working Solution:
• single 45 ml blood sample is taken into a 50 ml tube containing citrate (3.13%, 5 mL) and the tube is gently inverted 4 times. • Immediately after blood sampling, zymosan working solution (5 mL) is added. • After the addition of zymosan working solution, the tubes are capped, mixed gently and incubated at 22° C. for 15 min on a shaker at 20 rpm. • Make 10 ml aliquots after the incubation time. • Centrifuge the 15 ml tubes at 800 g for […] at 4° C. in a Jouan centrifuge. • Harvest the plasma and make 1-5 ml aliquots. • Store the plasma at −80° C.
Various concentrations of the neutrophil elastase inhibitor are incubated with plasma. Subsequently, the enzyme activity is measured using the fluorogenic substrate MeOSuc-Ala-Ala-Pro-Val-AMC (Bachem Cat. No. 1-1270, substrate concentration: 250 μM, pH 7.5, 25 mM TRIS buffer, 250 mM NaCl) in analogous fashion as described for the human neutrophil assay. A dose response curve is generated to calculate the EC50 of the inhibitor. The analysis of the data is performed by the calculation of the percentage of fluorescence in the presence of the test compound compared to the fluorescence of the vehicle control after subtracting the background fluorescence: An inhibitor of the neutrophil elastase enzyme will give values between 100% control (no inhibition) and 0% control (complete inhibition). The human plasma shift of selected compounds can be calculated using the following equation: Human plasma shift=(EC50 in human plasma assay)/(IC50 in human neutrophil elastase assay) The EC50 values of selected compounds in the human plasma assay described above are listed in Table 14.

A short description of data set [4]: Metabolic stability with human liver microsomes. It counts as in vitro ADME. To be noted: pooled human liver microsomes, 37° C., 1 mg/ml protein, NADPH. As to the method: Assay for the Determination of Metabolic Stability with Human Liver Microsomes
The metabolic degradation of the test compound is assayed at 37° C. with pooled human liver microsomes. The final incubation volume of […] per time point contains TRIS buffer pH 7.6 (0.1 M), magnesium chloride (5 mM), microsomal protein (1 mg/ml) and the test compound at a final concentration of […]. Following a short preincubation period at 37° C., the reactions are initiated by addition of beta-nicotinamide adenine dinucleotide phosphate, reduced form (NADPH, 1 mM) and terminated by transfering an aliquot into acetonitrile after different time points. Additionally, the NADPH-independent degradation is monitored in incubations without NADPH, terminated at the last time point. The rol remaining test compound after NADPH independent incubation is reflected by the parameter c(control) (metabolic stability). The quenched incubations are pelleted by centrifugation (10′000 g, 5 min) An aliquot of the supernatant is assayed by LC-MS/MS for the amount of parent compound.
The half-life (t1/2 INVITRO) is determined by the slope of the semilogarithmic plot of the concentration-time profile. The intrinsic clearance (CL_[…]) is calculated by considering the amount of protein in the incubation: CL_[…][μl/min/mg protein]=(ln 2/(half-life [min]*protein content [mg/ml]))*1′000.
The half-life (t1/2 INVITRO) values of selected compounds in the metabolic stability assay described above are listed in Table 15.

With `CS(=O)(=O)c1cc(C#N)ccc1[C@H]1NC(=O)N(c2cccc(C(F)(F)F)c2)C2=C1C(=O)CCC2` (single isomer, unassigned) [Example 18A], in data set [1], the “CL (predicted human hepatic in vivo blood clearance)” value is 0 mL/min/kg. Turning to `CS(=O)(=O)c1cc(C#N)ccc1[C@H]1NC(=O)N(c2cccc(C(F)F)c2)C2=C1C(=O)CCC2` (single isomer, unassigned) [Example 19A], the “CL (predicted human hepatic in vivo blood clearance)” value in data set [1] was 0 mL/min/kg.

Take `CNC(=O)N1C(=O)N(c2cccc(C(F)(F)F)c2)C2=C(C(=O)CCC2)[C@H]1c1ccc(C#N)cc1S(C)(=O)=O` (single isomer, unassigned) [Example 47A]: the “CL (predicted human hepatic in vivo blood clearance)” value in data set [1] is 0 mL/min/kg.

For the compound `CCS(=O)(=O)c1cc(C#N)ccc1[C@H]1NC(=O)N(c2cccc(C(F)(F)F)c2)C2=C1C(=O)CCC2` (single isomer, unassigned) [Example 54A], the “CL (predicted human hepatic in vivo blood clearance)” value in data set [1] is 2 mL/min/kg. One may read the IC50 as the concentration that gives 50% inhibition. As a reminder, the EC50 is the concentration giving half of the maximal effect. Low readings indicate a more potent agent, high ones a less potent agent. As for `CN1C(=O)N(c2cccc(C(F)(F)F)c2)C2=C(C(=O)CCC2)[C@H]1c1ccc(C#N)cc1S(C)(=O)=O` [Example 48, (S)-4-(3-Methyl-2,5-dioxo-1-(3-(trifluoromethyl)phenyl)-1,2,3,4,5,6,7,8-octahydroquinazolin-4-yl)-3-(methylsulfonyl)benzonitrile], the “CL (predicted human hepatic in vivo blood clearance)” value in data set [1] was 3 mL/min/kg. In data set [2], this compound showed an IC50 of 1 nM. Besides, it took 1 nM to reach a half-maximal effect in data set [3] (EC50). For the compound `CS(=O)(=O)c1cc(C#N)ccc1C1C2=C(CCCC2=O)N(c2cccc(C(F)(F)F)c2)C(=O)N1CCCO` (stereo not drawn) [Example 58.2], the “t1/2 INVITRO” value in data set [4] is reported as above 130 min. Moreover, the “CL (predicted human hepatic in vivo blood clearance)” value in data set [1] is 3 mL/min/kg. For the compound `CN1C(=O)N(c2ccnc(C(F)(F)F)c2)C2=C(C(=O)CCC2)C1c1ccc(C#N)cc1S(C)(=O)=O` (stereo not drawn) [Example 64, 4-(3-Methyl-2,5-dioxo-1-(2-(trifluoromethyl)pyridin-4-yl)-1,2,3,4,5,6,7,8-octahydroquinazolin-4-yl)-3-(methylsulfonyl)benzonitrile], the “CL (predicted human hepatic in vivo blood clearance)” value in data set [1] is 0 mL/min/kg. Also, in data set [2], the IC50 was 3.6 nM. In data set [3], this compound showed an EC50 of 1 nM. On to `CS(=O)(=O)c1cc(C#N)ccc1[C@@H]1C2=C(CCCC2=O)N(c2cccc(C(F)(F)F)c2)C(=O)N1S(C)(=O)=O` [Example 68, (S)-3-(Methylsulfonyl)-4-(3-(methylsulfonyl)-2,5-dioxo-1-(3-(trifluoromethyl)phenyl)-1,2,3,4,5,6,7,8-octahydroquinazolin-4-yl)benzonitrile], for which, in data set [1], the “CL (predicted human hepatic in vivo blood clearance)” value is 0 mL/min/kg. This compound showed an IC50 in data set [2] below 1 nM. Besides, in data set [3], it took 1 nM to reach a half-maximal effect (EC50). For the compound `CC(C)(O)CNC(=O)N1C(=O)N(c2cccc(C(F)(F)F)c2)C2=C(C(=O)CCC2)C1c1ccc(C#N)cc1` (stereo not drawn) [Example 70.9], in data set [4], the “t1/2 INVITRO” value is above 130 min. The “CL (predicted human hepatic in vivo blood clearance)” value in data set [1] was 0 mL/min/kg.

`CS(=O)(=O)c1cc(C#N)ccc1[C@@H]1C2=C(CCCC2=O)N(c2cccc(C(F)(F)F)c2)C(=O)N1C(N)=O` [Example 75, (S)-4-(4-Cyano-2-(methylsulfonyl)phenyl)-2,5-dioxo-1-(3-(trifluoromethyl)phenyl)-1,2,5,6,7,8-hexahydroquinazoline-3(4H)-carboxamide] displayed an IC50 in data set [2] below 1 nM. Moreover, the EC50 in data set [3] was below 1 nM. As for `CS(=O)(=O)c1cc(C#N)ccc1[C@@H]1C2=C(CCCC2=O)N(c2cccc(C(F)(F)F)c2)C(=O)N1C(=O)NC1CCOCC1` [Example 75.16], the “t1/2 INVITRO” value in data set [4] was above 130 min. The “CL (predicted human hepatic in vivo blood clearance)” value in data set [1] was 0 mL/min/kg.

The record behind these values is patent US9115093B2, “Substituted bicyclic dihydropyrimidinones and their use as inhibitors of neutrophil elastase activity” (Boehringer Ingelheim International GmbH, priority 2013, dated 2015).
